The values that follow come from ChEMBL document CHEMBL1123905.

Histamine H2 receptor (Cavia porcellus), sequence (P47747 whole entry): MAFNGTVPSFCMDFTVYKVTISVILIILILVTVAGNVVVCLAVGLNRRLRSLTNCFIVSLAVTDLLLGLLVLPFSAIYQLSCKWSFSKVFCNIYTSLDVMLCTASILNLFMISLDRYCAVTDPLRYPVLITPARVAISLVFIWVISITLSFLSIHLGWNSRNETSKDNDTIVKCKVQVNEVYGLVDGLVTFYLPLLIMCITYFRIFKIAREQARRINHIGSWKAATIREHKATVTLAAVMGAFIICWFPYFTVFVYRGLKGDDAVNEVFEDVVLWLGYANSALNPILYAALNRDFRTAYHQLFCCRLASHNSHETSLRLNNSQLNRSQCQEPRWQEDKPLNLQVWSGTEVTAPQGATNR

This assay has as its target Histamine H2 receptor (Cavia porcellus) (UniProt P47747). The assay is described as follows: Antagonism of histamine stimulated rate of beating of guinea pig right atrium mediated by Histamine H2 receptor. It counts as functional, tissue-based. The conditions noted are these: Cardiac atrium.
`Cc1[nH]cnc1CSCC/N=C(\N)c1ccc(O)cc1` registered a -Log KB of 4.2.

Consider `Cc1[nH]cnc1CSCC/N=C(\N)C(=O)O`, for which the -Log KB worked out at 5.41.

Turning to `CN/C(=N\CCSCc1[nH]cnc1C)S(=O)O`, the -Log KB turned out to be 5.73.

`Cc1[nH]cnc1CSCCNc1ncccc1C(=O)O` had a -Log KB of 5.09.

Consider `Cc1[nH]cnc1CSCCNc1cc(C(=O)O)ccn1`, for which the -Log KB is 3.76.

As for `CN/C(=N\CCSCc1nc[nH]c1C)NC#N`, the -Log KB came to 6.1.

With `CN/C(=N\CCSCc1[nH]cnc1C)P(=O)(O)OC`, the -Log KB is 4.25.

For `Cc1[nH]cnc1CSCCNc1ccc(C(=O)O)cn1`, the -Log KB was below 3.3.

The compound `CN/C(=N\CCSCc1[nH]cnc1C)S(=O)(=O)O` returned a -Log KB of 5.87.

As to `Cc1[nH]cnc1CSCC/N=C(\N)c1ccc(C(=O)O)cc1`, the -Log KB amounted to 3.7.

Compound `Cc1[nH]cnc1CSCCNc1ncccc1S(=O)(=O)O` came in with a -Log KB of 3.77.

Consider `Cc1[nH]cnc1CSCC/N=C(\N)CC(=O)O`, for which the -Log KB turned out to be 3.3.

The compound `Cc1[nH]cnc1CSCCNc1ncccc1O` returned a -Log KB of 5.89.
